Assay [1] concerns isolated guinea pig ileum. Kind of assay: twitch contractions (electrically induced) of the isolated guinea pig ileum. The note with it: for IC50: Cavia porcellus; for threshold of reduction of electrically induced contractions: concentration-dependent; for % reversal by naloxone: naloxone 10^−6 M added after last application of test compound; for inhibitory effect reversed after addition of naloxone: opioid receptor antagonist naloxone 1 μM; for maximal reduction: twitch reaction remaining as % of pre-value at highest concentration. Here is the method: It was investigated whether axomadol and (+)-O-demethyl axomadol are able to modulate gastrointestinal motility.
Male guinea pigs (PBW, Charles River, Kiβlegg, FRG) weighing 250-350 g were used for the study. The animals were kept under standard housing conditions: light/dark rhythm (06.00-18.00 h light, 18.00-6.00 h dark); room temperature 22±2° C., relative air humidity 55±5%; 15 air changes per hour, air movement <0.2 m/sec. The animals were given water and an exclusive diet of “Herilan RM 204” (Eggersmann Company, Rinteln/FRG) ad libitum. Before experimental preparation they were kept in groups of up to 5 animals in type IV Makrolon cages (Ebeco Company, Castrop-Rauxel, FRG). There were at least 4 days between delivery and testing.
Axomadol hydrochloride and (+)-O-demethyl axomadol hydrochloride were dissolved in aqua bidest. Final concentrations in the organ bath ranged from 10^−7 to 3.2·10^−4 M and from 10^−8 to 3.2·10^−5 M for axomadol hydrochloride and (+)-O-demethyl axomadol hydrochloride respectively (cumulative drug application). Naloxone (10^−6 M) was used as opioid antagonist.
A four-compartment organ bath (Dept. Biotechnology, Grunenthal GmbH) consisting of 20 ml acrylic glass compartments, organ supports and force transducers (F10 force transducers, Type 375, HSE, FRG) was used for the measurement of isometric contractions. The organ bath was filled and emptied by means of a semi-automatic dosing arrangement. All experiments were performed at […]. The nutrient solution was gassed with carbogen (95% O2/5% CO2)) both in the nutrient storage chamber and in the organ bath starting 30 min before the beginning and throughout the experiment.
The nutrient solution had the following composition:
Parameter: contraction force [g]
Guinea pigs were killed in CO2-atmosphere and the ileum was dissected free from adhering tissue, removed and suspended in the organ bath. After an incubation period of at least 30 min, isometric contractions (twitch reactions) were elicited by transmural stimulation pulses (duration 1 ms, amplitude 180 mA at 0.03 Hz; stimulator A310, WPI, FRG). A pre-tension of 1 g was applied to the preparations and constantly readjusted during the equilibration period (at least 30 minutes) while the nutrient was changed twice.
After having registered the pre-value, test compounds were added to the organ bath in cumulative concentration steps as indicated. The exposure time for each concentration was 6 minutes. After the last application of the test compound, the opioid-antagonist naloxone (10^−6 M) was added without previous wash out of the test compound.
1.5 Evaluation Data was calculated as the mean electrically stimulated contraction force during a period of 4 to 6 minutes after compound application and expressed as percentage of the pre-value. The mean contraction force during a period of 2 minutes before compound application was taken as pre-value. All results were expressed as means±s.e.m. of ≧4 single experiments. For determination of IC50 values, regression lines (y=f log x) were constructed and IC50 values with s.e.m. were calculated using a computer-assisted regression analysis program (Grünenthal GmbH). The reversal of the test compound's activity by the antagonist was determined according to the following equation:
with max. effect being: 100%−% reduction of pre-value of twitch reaction at highest dose of test compound.

The test system of assay [2] is visceral hyperalgesia induced by rectal administration of mustard oil in mice. The experiment in a line: visceral hyperalgesia / mustard oil colitis in mice. In kind it is in vivo. The text has this:
The effects of axomadol hydrochloride on visceral hyperalgesia were studied, which was induced by rectal administration of mustard oil in mice (according to Laird J M, Martinez-Caro L, Garcia-Nicas E, Cervero F. (2001) A new model of visceral pain and referred hyperalgesia in the mouse. Pain 92: 335-42). The typical visceral pain behaviour was quantified in three parameters: During the first minutes after mustard oil administration spontaneous visceral pain behaviour occurs. Following this period of spontaneous pain, referred allodynia and hyperalgesia can be quantified by means of von Frey filaments of different strength stimulating the abdomen of the mice.
Male NMRI mice (28-38 g body weight) from a commercial breeder (Iffa Credo, France) were used. The animals were housed under standardized conditions: light/dark cycle (06.00-18.00 h light, 18.00-06.00 h dark), room temperature 20-24° C., relative air humidity 35-70%, 15 air changes per hour, air movement <0.2 m/sec, tap water and standard diet ad libitum, macrolon type 4 cages with maximally 30 animals per cage. There were at least 5 days between delivery and start of the experiment.
Axomadol hydrochloride was dissolved in vehicle solution and injected intra-venously.
Doses: 0.464; 1.0; 2.15; 4.64; 10.0 mg/kg i.v. Administration volume: 10 ml/kg Vehicle solution: 0.9% NaCl solution (Fresenius, Bad Homburg, FRG) Mustard oil was dissolved in vehicle solution and administered intra-rectally Dose: 50 μl of a 3.5 Vol.−% solution per animal Vehicle solution: PEG 200
2.3.1 Induction of Colitis Animals were habituated to the test conditions for 20-30 min and stimulated with von Frey filaments onto the abdominal wall. 10 stimulations with von Frey filaments of 1, 4, 8, 16, and 32 mN were applied in ascending order (i.e. 10×1 mN, 10×4 mN, etc.). Animals with more than 25 positive reactions during this phase were excluded. Vaseline was applied in the perianal area to avoid the stimulation of somatic areas with the irritant chemical. Colitis is induced by rectal administration of 50 μl mustard oil (3.5%). Control animals are treated with vehicle (50 μl PEG200).
Axomadol hydrochloride or vehicle was given intravenously (i.v.) 5 min before mustard oil. Seven animals were tested per group. The following parameters were counted:
2-12 min after mustard oil: • 1. Spontaneous pain score: counting and scoring of visceral pain behaviours (Score 1-2, 1=licking of abdominal wall, 2=stretching, squashing, mounting, backward-movement or contraction of the flank muscles). 20-40 min after mustard oil • 2. […]
Data were analysed by means of two-factor analysis of variance (ANOVA) with repeated measures. Significance of treatment-, time- or treatment x time interaction effects was analyzed by means of Wilks' Lambda statistics. […]

The mark [3] stands for this setting: isolated guinea pig ileum, mean ± s.e.m., read-out: IC50 value, reduction of electrically induced contractions.
Setting [4] is: twitch contractions of the guinea pig ileum, cumulative application, read-out: IC50.

Where a name gives a salt, the structure may show the parent alone. Read-outs that look alike come from different tables or passages of the source.

A word on the IC50: it is the point on the concentration scale where inhibition reaches its midpoint. In the case of `COc1cccc([C@@]2(O)C[C@H](O)CC[C@@H]2CN(C)C)c1` (racemic) [axomadol hydrochloride, (1RS,3RS,6RS)-6-dimethylaminomethyl-1-(3-methoxyphenyl)-cyclohexane-1,3-diol], the IC50 in assay [1] (setting [3]) came out at 39.2 ± 2.8 µM. The IC50 in assay [1] (setting [4]) worked out at 39.2 ± 2.8 µM. For the same compound, the “twitch reactions, reduction to % of pre-value” in assay [1] (increasing concentrations up to 320 μM) is recorded as 32.1 % of pre-value. Besides, the “threshold of reduction of electrically induced contractions” value in assay [1] (isolated guinea pig ileum) was “around 10 μM”. In assay [1], the “% reversal by naloxone” value came out at 83.4%, the “inhibitory effect reversed after addition of naloxone” value came to 83.4% and the maximal reduction worked out at 32.1 % pre-value. In assay [2] (0.464, 1.0, 2.15, 4.64 and 10.0 mg/kg i.v.), the “inhibition of all three visceral pain parameters” value is “dose dependent and significant inhibition”. For the same compound, in assay [2] (i.v. 5 min before mustard oil, 1 mN von Frey filament, 20-40 min after mustard oil), the “ED50 (95% confidence intervals), referred allodynia” value is recorded as 6.13 (5.56-6.60-4.75) mg/kg i.v. For the same compound, the “ED50 (95% confidence intervals), spontaneous visceral pain behaviour” value in assay [2] (i.v. 5 min before mustard oil, 2-12 min after mustard oil) is on record as 2.62 (1.79-4.05) mg/kg i.v. Further, the “ED50 (95% confidence intervals), referred hyperalgesia” value in assay [2] (i.v. 5 min before mustard oil, 16 mN von Frey filament, 20-40 min after mustard oil) is listed as 2.72 (1.58-5.46) mg/kg i.v.

In the case of `CN(C)CC1CCC(O)CC1(O)c1cccc(O)c1` (single isomer, unassigned; (+)) [(+)-O-demethyl axomadol hydrochloride, 6-dimethylaminomethyl-1-(3-hydroxyphenyl)-cyclohexane-1,3-diol], the IC50 in assay [1] (setting [3]) was 0.43 ± 0.09 µM. In addition, in assay [1] (setting [4]), the IC50 is 0.43 ± 0.09 µM. For the same compound, in assay [1] (increasing concentrations up to 32 μM), the “twitch reactions, reduction to % of pre-value” is 16.6±3 % of pre-value. In assay [1] (isolated guinea pig ileum), the “threshold of reduction of electrically induced contractions” value is listed as “around 0.032 μM”. Moreover, in assay [1], the “% reversal by naloxone” value is listed as 69.1%, the “inhibitory effect reversed after addition of naloxone” value stood at 69.1% and the maximal reduction was 16.6 % pre-value.

For the origin of these results see patent publication US20120022294A1, “Axomadol or a Metabolite Thereof for Use in the Treatment of Irritable Bowel Syndrome” (priority 2010, published 2012).
